PMC10377753, “Pharmacokinetic and pharmacodynamic properties of polymyxin B in Escherichia coli and Klebsiella pneumoniae murine infection models” (Journal of Antimicrobial Chemotherapy, 2023)
Where a name gives a salt, the structure may show the parent alone. Bridge positions count the residues as written; N and C are the ends. Square brackets hold non-standard residues; d marks the D form. Peptide text beside a SMILES is read from it. * marks the point of attachment. X1 = CC[C@H](C)CCCCC(=O)*; Dab = NCC[C@H](N)C(=O)O

Experiments:
[1] = test system: K. pneumoniae isolates; assay: Dose-response study, thigh infection model, summary over K. pneumoniae isolates; assay type: in vivo, Klebsiella pneumoniae; conditions: mouse thigh infection
Method: Experiments were carried out in the Erasmus Laboratory Animal Science Centre in Rotterdam, The Netherlands in accordance with the EU Animal Directive 2010/63/EU 2010 directive[14] (licence number AVD101002016702) as described before,[15] with approval of the institutional Animal Welfare Body. Outbred female CD-1 mice obtained from Charles River Germany, weighing 20–25 g, 7–8 weeks old, were used in the experiments. The mice were housed under standard conditions with drink and feed supplied ad libitum.
Mice were rendered neutropenic by intraperitoneal injection of cyclophosphamide of 150 and 100 mg/kg, 4 days and 1 day before infection, respectively. On the day of infection, an overnight culture of the bacteria was diluted in fresh CAMHB and incubated at 37°C for 1 or 2 h depending on the growth rate of the strain. After incubation the inoculum was diluted in CAMHB or saline for the thigh and lung infection model, respectively, in order to obtain approximately 5.0 × 10^7 cfu/mL. Mice were then infected intramuscularly in each thigh (thigh infection model) or intranasally under isoflurane anaesthesia (lung infection model), with 0.05 mL of inoculum containing approximately 2.5 × 10^6 bacteria. Analgesia was given in the form of buprenorphine directly after infection, every 12 h.
For dose–response studies, a 6 hourly dosing regimen of 1–32 mg/kg was studied in the thigh infection model. Mice were infected with E. coli […], 15, 51 or 71 or K. pneumoniae ATCC 43816, 17, 58 or 74.
Animals were humanely euthanized 24 h (t = 24 h) after the first dose, unless the welfare of the animals necessitated earlier termination, following animal welfare regulations. Excised thighs were transferred to a pre-cooled 14 mL polypropylene tube containing 2 mL of PBS and were homogenized using a T25 ULTRA-TURRAX (IKA-Werke GmbH & Co, Staufen, Germany). A 10-fold dilution series was prepared and 3 × 10 μL was plated per dilution. The following day, colonies were counted and the number of cfu per thigh was calculated.
The drug effect was determined by the difference between the log10 cfu values at t = 0 h (mean value of two mice) and t = 24 h (value of individual mice) expressed as Δlog10 cfu. The fAUC/MIC, fCmax/MIC and %fT>MIC were determined based on the simulated time–concentration profiles over 24 h as derived in MicLab 2.71 (MEDIMATICS, Maastricht, The Netherlands) using 200 points per dosing interval.
A sigmoid maximum effect (Emax) model was fitted to the PK/PD index versus Δlog10 cfu data by non-linear regression, and static or a 1 log or 2 log kill effect were determined using GraphPad Prism 8.0 (GraphPad, Inc., San Diego, CA, USA). […]

[2] = test system: plasma proteins; assay: Plasma protein binding by ultrafiltration; assay type: in vitro ADME; conditions: plasma of infected mice treated with polymyxin B, corrected for non-specific binding, LC-MS/MS, mean ± SD, no concentration dependency
Method: The binding of polymyxin B to plasma proteins was determined via ultrafiltration. Polymyxins have a tendency to non-specifically bind to different kinds of material, including ultrafiltration filters. Thus, to correct for polymyxin B loss on the filter, an experiment was performed in which ultrafiltrated (UF) phosphate buffer was spiked with multiple polymyxin B concentrations (ranging from 0.75 to 8 mg/L) and subsequently concentrations were measured. […] Using this relationship, the non-specific binding (NSB) for each measured polymyxin B UF concentration was calculated. Correction for the measured polymyxin B UF concentration using this NSB value was according to the following formula: polymyxin B UF Corrected Concentration = Measured polymyxin B UF Concentration × (1−NSB).
Polymyxin B concentrations in plasma, BAL and ultrafiltrates were determined by a validated LC-MS/MS method,[18] with a lower limit of quantification (LOQ) of 0.2 mg/L for plasma and 0.05 mg/L for BAL fluid and ultrafiltrates. […] The residues were dissolved in 0.1 mL of 0.1% formic acid in water and analysed by LC-MS/MS. […] Polymyxin B was analysed on an XBridge C18 column (5 µm, 2.1 × 150 mm; Waters). […] Calibration curves of polymyxin B ranged from 0.1 to 10 mg/L for plasma and ultrafiltrates, and were quantified with a quadratic regression mode. […]

CC[C@H](C)CCCCC(=O)N[C@@H](CCN)C(=O)N[C@H](C(=O)N[C@@H](CCN)C(=O)N[C@H]1CCNC(=O)[C@H]([C@@H](C)O)NC(=O)[C@H](CCN)NC(=O)[C@H](CCN)NC(=O)[C@H](CC(C)C)NC(=O)[C@@H](Cc2ccccc2)NC(=O)[C@H](CCN)NC1=O)[C@@H](C)O [polymyxin B, Polymyxin B sulphate salt] (X1-[Dab]T[Dab][Dab][Dab][dF]L[Dab][Dab]T; lactam 4-C)
Isolates in which 1 log kill was found ([1]; K. pneumoniae isolates): 1/4
Target value of fAUC/MIC, static effect, average ([1]; average of four K. pneumoniae isolates, q6h): 22.4
Target value of fAUC/MIC, static effect, median ([1]; median of four K. pneumoniae isolates, q6h): 11.6
Target value of fAUC/MIC, static effect, range ([1]; range over four K. pneumoniae isolates, q6h): 5.9–60.5
%fu (percent fraction unbound) [2]: 20% ± 4.0%
